Test results: patent US20240002351A1, “QUINAZOLIN-4-ONE AND THIENO[2,3-D]PYRIMIDIN-4-ONE INHIBITORS OF ERBB4 (HER4) FOR USE IN THE TREATMENT OF CANCER” (UNIVERSITEIT ANTWERPEN, priority 2021, published 2024)

Key:
[1] = Solubility in PBS (absorbance); assay type: physicochemical; conditions: aqueous buffer, kinetic from dmso stock, 37° C., 2 hours (FIG. 10), read-out: solubility: concentration at which easily soluble
Procedure: A dilution series (0.16, 0.31, 0.62, 1.25, 2.5 and 5 mM) was made starting with a compound stock solution of 10 mM in DMSO. Aliquot of 4 μL was taken out of every dilution and added to 196 μL PBS in a 96-well plate. The plate was shaken for 10 seconds, incubated at 37° C. for 2 hours and thereafter absorbance was measured. Samples were analyzed in duplicate.

Chemical stability = assay type: physicochemical; conditions: 37° C. and pH 7.4 for 24 hours (FIG. 11)
Procedure: A 10 μL aliquot of compound solution (10 mM in DMSO) was added to 990 μL DMSO (100 μM) and further diluted with […] to a stock solution of 500 nM. The mixture was incubated at 37° C. Aliquots of 100 μL were taken at various time points (0, 0.5, 1, 2, 3, 6 and 24 hrs) and analyzed with LC-MS/MS (Waters Acquity H-class UPLC system with ion trap mass spectrometer, Bruker Daltonics Esquire 3000 plus, and Agilent 1100 Series LC system). Samples were analyzed in triplicate and plotted against a standard curve; compound at 31-500 nM in buffer solution of pH 7.4 (10 mM Potassium Phosphate, BD Gentest).

[2] = Plasma stability, human plasma; assay type: in vitro ADME; conditions: 50 μM, 37° C., over 6 hours (FIG. 12)
Procedure: (§1) A 5 μL aliquot of compound solution (10 mM in DMSO) was added to 995 μL of Non Swiss Albino Mouse Plasma (DivBioScience, Breda, Netherlands) or Pooled Normal Human plasma in sodium citrate to obtain a final concentration of 50 μM compound in plasma. The mixture was gently shaken for 6 hours at 37° C. Aliquots of 100 μL were taken at various time points (0, 0.5, 1, 2 and 6 hrs.) and diluted with 400 μL of cold acetonitrile (Sigma-Aldrich, stored at 4° C.). The suspension was centrifuged at 14000 rpm for 5 min. Thereafter, 50 μL of the supernatant was diluted with 950 μL of acetonitrile and analyzed with LC-MS/MS (Waters Acquity H-class UPLC system with ion trap mass spectrometer, Bruker Daltonics Esquire 3000 plus, and Agilent 1100 Series LC system). Samples were analyzed in triplicate and plotted against a standard curve (compound at 3.12-100 μM in plasma and diluted in acetonitrile as described above).

ERBB4 [3] = target: T1, ERBB4 (Homo sapiens, UniProt Q15303); test: PathHunter ERBB4/ERBB4 dimerization assay, dose-response curves; assay type: cell-based; conditions: U2OS ERBB4/ERBB4 dimerization cell line, 6 hours, compound alone; for Emax: NRG-1 = 100
T1 construct: host or cells: U2OS
T1 sequence (Q15303 26-1308): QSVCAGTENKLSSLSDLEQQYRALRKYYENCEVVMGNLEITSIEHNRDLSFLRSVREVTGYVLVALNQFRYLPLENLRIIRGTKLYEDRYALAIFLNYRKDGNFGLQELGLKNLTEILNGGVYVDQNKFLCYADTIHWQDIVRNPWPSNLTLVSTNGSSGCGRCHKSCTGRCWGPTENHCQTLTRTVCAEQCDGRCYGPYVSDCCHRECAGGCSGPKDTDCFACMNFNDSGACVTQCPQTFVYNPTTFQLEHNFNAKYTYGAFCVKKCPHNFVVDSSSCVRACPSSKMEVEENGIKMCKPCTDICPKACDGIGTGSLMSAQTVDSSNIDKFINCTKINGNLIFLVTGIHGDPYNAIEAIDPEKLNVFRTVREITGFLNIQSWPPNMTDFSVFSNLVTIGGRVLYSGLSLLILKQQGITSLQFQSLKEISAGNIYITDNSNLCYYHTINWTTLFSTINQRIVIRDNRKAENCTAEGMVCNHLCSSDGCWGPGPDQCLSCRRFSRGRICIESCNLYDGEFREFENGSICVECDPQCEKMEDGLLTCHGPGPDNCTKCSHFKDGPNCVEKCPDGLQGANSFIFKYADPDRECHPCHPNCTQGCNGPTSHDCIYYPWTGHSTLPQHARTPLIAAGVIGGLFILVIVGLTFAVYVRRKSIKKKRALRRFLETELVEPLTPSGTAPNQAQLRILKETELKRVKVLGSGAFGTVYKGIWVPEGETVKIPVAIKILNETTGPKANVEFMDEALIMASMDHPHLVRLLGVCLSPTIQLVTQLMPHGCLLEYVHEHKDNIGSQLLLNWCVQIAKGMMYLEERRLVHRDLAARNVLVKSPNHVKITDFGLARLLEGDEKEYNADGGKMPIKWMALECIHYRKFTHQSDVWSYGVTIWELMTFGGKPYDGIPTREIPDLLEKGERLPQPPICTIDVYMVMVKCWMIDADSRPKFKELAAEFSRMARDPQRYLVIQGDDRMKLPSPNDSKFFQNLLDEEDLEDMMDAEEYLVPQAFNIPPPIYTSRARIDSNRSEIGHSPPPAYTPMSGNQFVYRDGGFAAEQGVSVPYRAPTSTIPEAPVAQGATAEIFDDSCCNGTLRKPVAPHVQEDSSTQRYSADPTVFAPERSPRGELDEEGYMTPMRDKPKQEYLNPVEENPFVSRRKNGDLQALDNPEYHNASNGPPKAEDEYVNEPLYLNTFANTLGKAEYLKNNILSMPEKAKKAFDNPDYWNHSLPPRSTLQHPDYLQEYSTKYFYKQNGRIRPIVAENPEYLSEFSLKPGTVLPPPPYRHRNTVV
Procedure: (§2) Following 1-12 passages, U2OS ERBB4/ERBB4 dimerization cell line (Eurofins, 93-0961C3) were seeded at 10,000 cells/well in 100 μL cell plating reagent (Eurofins, 93-0563R0A) in white walled 96-well plates (PerkinElmer, 6005680) and incubated for 24h at 37° C. in humidified atmosphere of 5% CO2 in air. Cells were treated with 10 μL of compound (prepared at 11×, Enamine), 10 μM Heregulin-β1 (NRG-1) (DiscoverX, 92-1031 or Peprotech, 100-03) or PBS. […] Cells were subsequently incubated for 6 hours at 37° C., 5% CO2. Then 110 μL PathHunter Flash Detection Reagents (93-0247) were added to each well and cells were incubated at room temperature for 1 hour (covered from light). Afterwards luminescence signal was measured using the Luminoskan Ascent (Thermofisher). Dose response curves of the compounds were performed in 2-fold (0,0625 μM-32 μM).
From these curves, the EC50 and the Emax of the compounds was calculated.

ERBB4 [4] = target: T1, ERBB4; test: PathHunter ERBB4/ERBB4 dimerization assay, compounds on top of 0.1 μM NRG-1 (identification of modulators); assay type: cell-based; conditions: for EC50: on top of 0.1 μM NRG1; for Emax: on top of 0.1 μM NRG1, relative to NRG1 (set as 100%); for behaviour from the shape of the dose-response curves: on top of 0.1 μM neuregulin-1 (FIG. 1)
Procedure: as §2
Cells were treated with compound (prepared at 22×, 10 min pre-incubation) together with NRG-1 (0.1 μM final concentration, Peprotech, 100-03), or NRG-1 (0.1 μM final concentration) or PBS.
The EC50 and the Emax of the compounds on top of 0.1 μM NRG1 is depicted in Table 3 relative to NRG1 (set as 100%).

[5] = Plasma stability, mouse plasma; assay type: in vitro ADME; conditions: 50 μM, 37° C., over 6 hours (FIG. 12)
Procedure: as §1

[6] = Metabolic stability, mouse liver microsomes; assay type: in vitro ADME; conditions: for t1/2 mouse: mouse liver microsomes; for half-life at 10 µM: mouse, liver microsomes, pH 7.4, mouse liver microsomes, read-out: t1/2 mouse
Procedure: A mixture of 713 μL milliQ water (Millipore, MA, USA), 200 μL 0.5 M phosphate buffer (pH 7.4, BD Diagnostic Systems, MD, USA), 50 μL NADPH regenerating system solution A (BD Biosciences, CA, USA), 10 μL NADPH regenerating system solution B (BD Biosciences, CA, USA) and 2 μL compound (5 mM in DMSO) was prepared and heated for 5 min at 37° C. Twenty-five μL of liver microsomes (0.5 mg protein/mL, Corning B.V. Life Sciences, Amsterdam, Netherlands) was added to the mixture and 20 μL samples were withdrawn at 0, 0.25, 0.5 and 1, 2, 4, 6 and 24 hours. Eighty μL (4×20 μL) of cold acetonitrile (Sigma-Aldrich, MO, USA) was added to the samples on ice for 10 min. Afterwards, the mixtures were centrifuged at 13,000 rpm for 5 min at 4° C. Seventy-five μL of an acetonitrile/water (10/90) mixture was added to 25 μL supernatant and the obtained samples were analyzed by LC-MS/MS (Waters Acquity H-class UPLC system with ion trap mass spectrometer, Bruker Daltonics Esquire 3000 plus, and Agilent 1100 Series LC system) in triplicate.

## O=C(NC1CC1)C(Sc1nc2ccccc2c(=O)n1C1CCCC1)c1ccccc1 (centres unmarked) [Compound 1]
[1]
  solubility at 2 h: < 25 µM
Chemical stability
  chemical stability: chemically stable
[2]
  plasma stability, human plasma: stable
ERBB4 [3]
  EC50: 8.92 µM
  Emax: 33.1 ± 4.21%
ERBB4 [4]
  EC50: ~1.6 µM
  Emax: 256 ± 126%
  behaviour from the shape of the dose-response curves: ago-allosteric modulators
[5]
  plasma stability, mouse plasma: stable
[6]
  t1/2 mouse: 15 min
  half-life at 10 µM: 14 to 15 min

## CC(Sc1nc2ccccc2c(=O)n1C1CCCC1)c1nc2ccccc2n1C(F)F (centres unmarked) [Compound 7]
[1]
  solubility at 2 h: < 25 µM
Chemical stability
  chemical stability: chemically stable
[2]
  plasma stability, human plasma: stable
ERBB4 [3]
  EC50: 10.4 µM
  Emax: 9.76 ± 2.46%
ERBB4 [4]
  Emax: 139 ± 19%
  behaviour from the shape of the dose-response curves: weak or silent allosteric modulators
[5]
  plasma stability, mouse plasma: stable
[6]
  t1/2 mouse: 14 min
  half-life at 10 µM: 14 to 15 min

## Cc1sc2nc(SC(C)C(=O)Nc3sccc3C(N)=O)n(CC(C)C)c(=O)c2c1C (centres unmarked) [Compound 6]
[1]
  solubility at 2 h: < 25 µM
Chemical stability
  chemical stability: chemically stable
[2]
  plasma stability, human plasma: stable
ERBB4 [3]
  EC50: 6.47 µM
  Emax: 10.3 ± 3.01%
ERBB4 [4]
  EC50: ~13.9 µM
  Emax: 112 ± 14%
  behaviour from the shape of the dose-response curves: weak or silent allosteric modulators
[5]
  plasma stability, mouse plasma: stable
[6]
  t1/2 mouse: 8 min
  half-life at 10 µM: 8 to 12 min
